{
  "source": "patent US8258158B2",
  "about": "(Hoffmann-La Roche Inc., priority 2009, dated 2012)",
  "data": [
    {"target": "T1, human HSL (Homo sapiens, UniProt Q05469)", "T1 construct": "overlapping PCR to generate a full length human HSL ORF with a 3′-His6 tag; His6 (C); made in house; host or cells: High 5 insect cells (baculovirus, pFast-BAC)", "T1 sequence (Q05469 1-1076)": "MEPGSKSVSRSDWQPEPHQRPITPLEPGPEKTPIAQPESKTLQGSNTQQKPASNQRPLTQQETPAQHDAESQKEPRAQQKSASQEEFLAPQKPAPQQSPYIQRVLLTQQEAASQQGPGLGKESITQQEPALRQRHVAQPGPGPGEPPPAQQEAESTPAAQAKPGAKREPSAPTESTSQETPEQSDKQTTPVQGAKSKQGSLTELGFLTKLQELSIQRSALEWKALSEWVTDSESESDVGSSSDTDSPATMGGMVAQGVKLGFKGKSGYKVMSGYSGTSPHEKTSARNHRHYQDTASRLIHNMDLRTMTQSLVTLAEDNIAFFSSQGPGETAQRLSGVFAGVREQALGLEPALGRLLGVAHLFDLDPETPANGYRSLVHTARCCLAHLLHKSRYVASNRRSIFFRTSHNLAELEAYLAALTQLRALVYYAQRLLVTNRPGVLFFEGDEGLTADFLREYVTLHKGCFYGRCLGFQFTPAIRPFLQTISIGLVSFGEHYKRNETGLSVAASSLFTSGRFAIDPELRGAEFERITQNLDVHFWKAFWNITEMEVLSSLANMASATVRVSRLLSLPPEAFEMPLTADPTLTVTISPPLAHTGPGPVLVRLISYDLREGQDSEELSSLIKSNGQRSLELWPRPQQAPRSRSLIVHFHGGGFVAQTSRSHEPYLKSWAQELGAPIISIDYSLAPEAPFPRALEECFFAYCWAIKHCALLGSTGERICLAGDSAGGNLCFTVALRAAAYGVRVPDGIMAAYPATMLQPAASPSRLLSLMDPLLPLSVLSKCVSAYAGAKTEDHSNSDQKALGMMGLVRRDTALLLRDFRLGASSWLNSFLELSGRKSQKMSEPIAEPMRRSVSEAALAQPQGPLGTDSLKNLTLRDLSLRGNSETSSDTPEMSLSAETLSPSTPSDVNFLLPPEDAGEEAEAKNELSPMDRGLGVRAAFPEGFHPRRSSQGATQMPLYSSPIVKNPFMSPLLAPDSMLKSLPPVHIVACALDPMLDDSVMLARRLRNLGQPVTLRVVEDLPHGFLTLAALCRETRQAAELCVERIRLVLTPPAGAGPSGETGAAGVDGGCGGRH", "assay": "Human hormone-sensitive lipase (HSL) enzyme inhibition assay (colorimetric, DMPT substrate)", "format": "biochemical", "conditions": "human full length HSL-His6; 2,3-dimercapto-1-propanol tributyrate substrate; 37° C., 20 minutes; read-out: HSL hum IC50", "method_in_brief": "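Full-length human HSL with C-terminal His6, expressed in baculovirus/High 5 cells and Ni-NTA purified, was added from a 15 µg/ml solution to 1.5 mM DMPT in 100 mM MOPS pH 7.2, 0.2 mg/ml fatty acid-free BSA. After 20 min at 37 °C, DTNB with SDS/Triton X-100 was added, 15 min RT, and A405 read.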", "units": {"IC50": "nM"}, "values": [
      {"smiles": "COC[C@@H]1C[C@@H](C(=O)Nc2ccc(OC(F)(F)F)cc2)CCN1S(=O)(=O)c1ccc(C)cc1", "note": "(racemic) [Example 23, Racemic Mixture of Example 23a which is (2S,4S)-2-Methoxymethyl-1-(toluene-4-sulfonyl)-piperidine-4-carboxylic acid (4-trifluoromethoxy-phenyl)-amide and Example 23b which is (2R,4R)-2-Methoxymethyl-1-(toluene-4-sulfonyl)-piperidine-4-carboxylic acid (4-trifluoromethoxy-phenyl)-amide]", "IC50": 110},
      {"smiles": "CC1(C(=O)Nc2ccc(OC(C)(C)C(F)(F)F)cc2)CCN(S(=O)(=O)c2ccccc2)CC1", "note": "(racemic) [Example 50, (rac)-1-Benzenesulfonyl-4-methyl-piperidine-4-carboxylic acid [4-(2,2,2-trifluoro-1,1-dimethyl-ethoxy)-phenyl]-amide]", "IC50": 810},
      {"smiles": "CC(Oc1ccc(NC(=O)C2(CO)CCN(S(=O)(=O)c3ccccc3)CC2)cc1)C(F)(F)F", "note": "(racemic) [Example 27, (rac)-1-Benzenesulfonyl-4-hydroxymethyl-piperidine-4-carboxylic acid [4-(2,2,2-trifluoro-1-methyl-ethoxy)-phenyl]-amide]", "IC50": 950},
      {"smiles": "Cn1cc(S(=O)(=O)N2CCC(F)(C(=O)Nc3ccc(OC(F)(F)F)cc3)CC2)c(C(F)(F)F)n1", "note": "[Example 63, 4-Fluoro-1-(1-methyl-3-trifluoromethyl-1H-pyrazole-4-sulfonyl)-piperidine-4-carboxylic acid (4-trifluoromethoxy-phenyl)-amide]", "IC50": 1090},
      {"smiles": "Cc1ccc(S(=O)(=O)N2CCC(C)(C(=O)Nc3ccc(OC(F)(F)F)cc3)CC2)cc1", "note": "[Example 31, 4-Methyl-1-(toluene-4-sulfonyl)-piperidine-4-carboxylic acid (4-trifluoromethoxy-phenyl)-amide]", "IC50": 480},
      {"smiles": "Cc1ccc(S(=O)(=O)N2CCC(CO)(C(=O)Nc3ccc(OC(F)(F)F)cc3)CC2)cc1", "note": "[Example 51]", "IC50": 330},
      {"smiles": "CC1(C(=O)Nc2ccc(OC(F)(F)F)cc2)CCN(S(=O)(=O)c2ccccc2Cl)CC1", "note": "[Example 58, 1-(2-Chloro-benzenesulfonyl)-4-methyl-piperidine-4-carboxylic acid (4-trifluoromethoxy-phenyl)-amide]", "IC50": 540},
      {"smiles": "Cc1ccc(S(=O)(=O)N2CCC(C(=O)Nc3ccc4c(c3)CCO4)CC2)cc1", "note": "[Example 17, 1-(Toluene-4-sulfonyl)-piperidine-4-carboxylic acid (2,3-dihydro-benzofuran-5-yl)-amide]", "IC50": 770},
      {"smiles": "Cc1ccc(S(=O)(=O)N2CCC(C(=O)Nc3ccc(OC(C)C(F)(F)F)nc3)CC2)cc1", "note": "(racemic) [Example 6, (rac)-1-(Toluene-4-sulfonyl)-piperidine-4-carboxylic acid [6-(2,2,2-trifluoro-1-methyl-ethoxy)-pyridin-3-yl]-amide]", "IC50": 120},
      {"smiles": "CC(C)c1ccc(NC(=O)C2CCN(C(=O)CCC3CC3)CC2)cc1", "note": "[Example 9, 1-(3-Cyclopropyl-propionyl)-piperidine-4-carboxylic acid (4-isopropyl-phenyl)-amide]", "IC50": 350},
      {"smiles": "O=C(Nc1ccc(OC(F)(F)F)cc1)C1CCN(S(=O)(=O)c2ccccc2Cl)CC1", "note": "[Example 38, 1-(2-Chloro-benzenesulfonyl)-piperidine-4-carboxylic acid (4-trifluoromethoxy-phenyl)-amide]", "IC50": 20},
      {"smiles": "O=C(Nc1ccc(OC(F)(F)F)cc1)C1(CO)CCN(S(=O)(=O)c2ccccc2Cl)CC1", "note": "[Example 28, 1-(2-Chloro-benzenesulfonyl)-4-hydroxymethyl-piperidine-4-carboxylic acid (4-trifluoromethoxy-phenyl)-amide]", "IC50": 660},
      {"smiles": "Cc1ccc(S(=O)(=O)N2CCC(F)(C(=O)Nc3ccc(C(C)C)cc3)CC2)cc1", "note": "[Example 41, 4-Fluoro-1-(toluene-4-sulfonyl)-piperidine-4-carboxylic acid (4-isopropyl-phenyl)-amide]", "IC50": 320}
    ]}
  ]
}
